Where no end group is shown, it is not given here.
What was measured:
[1] = test system: aPL (pool from APS patients); experiment: Determination of aPL by ELISA on coated peptides / biotinylated peptides (custom immunoassay); format: binding, Human
Description: (§1) Determination of aPL by ELISA—MaxiSorp™ 96 well plates (Nunc) or Streptavidin plate (Thermofisher) were coated with 10 μg/ml recombinant domains of β2GP1, peptides or biotinylated-peptide prior to incubation with aPLA. Secondary anti-human antibodies conjugated to IR800CW (Rockland) or HRP were used. Protein- or peptide-bound antibodies were detected and quantified by the Odyssey system (Li-Cor Biosciences) or absorbance in optical densities (OD) was determined at 405 nm (molecular Devices™ Filtermax).
The de Groot's research group has pointed at the importance of hydrophobic character of the plate during coating of R39-R43 epitope. In order to abrogate of the plate-dependent aPL binding, the Ia-1 and Ib-1 peptides as well as the R39-R43 with a biotin at their N-terminal were synthetized and coated a streptavidin plate. In this configuration, the different peptides are flag oriented in the space preventing any interaction with the plate. It was thus observed that the flag-type orientation of R39-R43-biot leads to 8.52×more interaction with aPL while they show 9.63×more binding for Ib-1-biot presenting the same position. […] The surface plasmon resonance (SPR) technique is used to determine the relative avidity of aPL for R39-R43-biot and Ib-1-biot. The interaction between aPL and immobilized R39-R43-biot or Ib-1-biot is monitored by flowing various concentrations of aPL over a R39-R43-biot- or Ib-1-biot-coated chip surface (FIG. 1C). Through SPR experiments, it appears that aPL avidity for Ib-1-biot presents a resonance unit (RU) of 51.49 at 1/1,000 of dilution and a RU of 27.61 at 1/10,000 of dilution while, at the same dilution, it present a RU of 27.36 and a RU of 17.99 with R39-R43-biot, respectively (FIG. 1C). However, at higher concentrations, the peptides seems to show no differences in the interactions with aPL. […] Considering that IgG valency, it was decided to generate a dimeric Ib-1-biot peptide (Ib-1-biot-2x). This new polypeptide carries thus two optimized epitopes which have the opportunity to interact with two Fab fragment present on aPL. […] At higher concentration, i.e dilution of 1/100, the avidity for dimeric peptide is 28×more than for the monomeric (FIG. 1D).
It was performed a peptide substitution scan of Ib-1-biot VSRGGMRKKKKPLTG (SEQ ID NO: 6) carrying the optimized epitope Ib-1-biot and based on an exchange of the underlined amino acid positions with the 20 main amino acids. The resulting peptide microarrays contained 140 different peptides. It was observed that the peptide substitution of the position n° 1, 2, 12 and 15 have significant influences on the ability to interact with aPL from patients 1, 2, 3, 4 and, in particular, form the plasma pool. Indeed, the substitution of the position 1, 12 or 15 by an Arginine (R) or a Lysine (K) increases the avidity of the peptide for all aPL from patients. […] In this context, the enhancement relative to Ib-1.0-biot-2x of identified peptides was evaluated (FIG. 2A). […] However, streptavidin being known to produce unspecific binding, it was used the ratio between aPL and a pool of human plasma as control (B/B0) (FIG. 2B, upper panel). This representation therefore allows to distinguish the real levels of interactions. It was then performed a dilution assay from dilution of 1/100 to 1/1,200,000 and it was observed relevant differences between the different identified peptides. By comparison of area under the curve (AUC), it was possible to detect the most prone-interacting peptide with aPL. Thus, the peptide IIa-8.0-biot-2x obtained the higher AUC (FIG. 2B, bottom panel). To formally quantify the ability of aPL to interact with IIa-8.0-biot-2x, it was monitored by flowing various concentrations of aPL over a IIa-8.0-biot-2x-coated chip surface (FIG. 2C). […] In FIG. 2C, bottom panel, it can be appreciated more precisely the improvement of the quality of interactions. […]

aPL produced by mice = experiment: ELISA of IgG anti-IIa-8.0-biot-2x in serum of lupus-prone mice; format: binding; conditions: serum of apoe−/−.Nba2.Yaa mice on HCD (FIG. 3A)
From the text: B6.Nba2. Yaa mice were generated as described.^8 The Apoe^−/− null mutation was introduced in B6.Nba2.Yaa mice by breeding. Eleven-week old Apoe^−/− C57B1/6 and Apoe^−/−Nba2.Yaa mice were subjected to 11 weeks of high cholesterol diet (HCD) (20.1% fat, 1.25% cholesterol, Research Diets, Inc., New Brunswick, NJ), as a model of advanced atherosclerosis. The treatments and atherosclerosis protocols were well-tolerated by the mice, and no adverse events (such as weight loss and signs of systemic toxicity) were reported. At sacrifice, haematological parameters were routinely measured. Animals were euthanized by exsanguination after anesthesia with 4% isoflurane. All breeding and experimental protocols and procedures were reviewed and approved by the Institutional Animal Care and Use Committee of the Geneva University School of Medicine.
as §1, with “Filtermax). […]” for “Filtermax).”

With “IIa-8.0-biot-2x: dimeric biotinylated IIa-8.0 peptide; also used associated with streptavidin magnetic beads (RSRGGMRKRKKPLTGRSRGGMRKRKKPLTG; also: dimeric peptide (two IIa-8.0 copies), biotinylated, site not given here)” the “ability to interact with aPL, enhancement relative to Ib-1.0-biot-2x” value ([1]; ELISA, four dilutions of aPL pool (FIG. 2A)) was “significantly increased with at least three of the four dilutions”, the “area under the curve (AUC) of dilution assay, B/B0” value ([1]; dilution 1/100 to 1/1,200,000, aPL pool / pool of healthy plasma (FIG. 2B)) was “higher AUC” and the “interaction with aPL produced by mice” value (aPL produced by mice) was “able to interact also with aPL produced by mice”.

From US20240116994A1, “Peptides And Use Thereof For Diagnosing And Treating Antiphospholipid Syndrome” (UNIVERSITE DE GENEVE, priority 2021, published 2024)
